Drawing on PubChem BioAssay AID624344 (Sanford-Burnham Center for Chemical Genomics, 2012), this text covers IC50 for 65 molecules.

Calls of active or inactive are those of the source. How the calls were made is not given here.

A short description of assay [1]: inhibitors of PAF-induced NFkB signaling in CF airway cells, dose response, cell-based, uHTS hits, panel, cytotoxicity readout (AID 624344). Conditions: CF bronchial epithelial cells, PAF-induced NFkB reporter inhibition; with PAF, mean of runs.
In another assay the test system is Cytotoxicity. Described as above. Conditions: CF bronchial epithelial cells, mean of runs.

As usually defined, the IC50 is the concentration at which inhibition is half-maximal. On to `Cn1c(=O)c2c(nc(Oc3ccc4ccccc4c3)n2C)n(C)c1=O`, for which the values for the IC50 (in assay [1]; with Cytotoxicity) were 9.64 µM and > 79 µM (inactive), respectively.
With `O=S(=O)(Nc1cccc2cccnc12)c1ccccc1`, the IC50 in assay [1] was 1.69 µM; in the assay with Cytotoxicity, 44.5 µM.
For `COc1cc(C2c3cc4c(c(O)c3CC3COC(=O)C32)OCO4)cc(OC)c1OC` (stereo not given), the IC50 result in assay [1] is “inactive”. Further, in the assay on Cytotoxicity, the IC50 is > 79 µM (inactive).
For `COc1ccc(-c2cc(-c3nc4ccccn4c3NCc3ccccc3)ccc2OC)cc1`, the IC50 in assay [1] was 4.41 µM; in the assay with Cytotoxicity, 5.51 µM.
Turning to `O=C(NNc1ccccc1Cl)C(O)(c1cccc(C(F)(F)F)c1)c1cccc(C(F)(F)F)c1`, the IC50 in assay [1] was 13.3 µM; in the assay with Cytotoxicity, 7.25 µM.
Take `CCOc1ccc(Nc2ncnc3ccc([N+](=O)[O-])cc23)cc1`: the concentration for half-maximal inhibition (IC50) was 1.67 µM in assay [1] and 21.4 µM with Cytotoxicity.
As for `Clc1ccc(Cn2ncc3c(N4CCN(c5ccccc5)CC4)ncnc32)cc1`, the IC50 is 4.7 µM in assay [1] and 5.17 µM in the assay with Cytotoxicity.
For `O=c1c(-c2c(O)cc(O)c3c2O[C@H](c2ccc(O)cc2)CC3)c(-c2ccc(O)cc2)oc2cc(O)cc(O)c12`, the IC50 was 1.44 µM in assay [1] and 5.44 µM with Cytotoxicity.
Consider `O=C(OC1CCOC1=O)c1ccccc1C(=O)c1ccc(Cl)c([N+](=O)[O-])c1` (stereo not given), for which the IC50 in assay [1] was 4.44 µM; with Cytotoxicity it was 7.46 µM.
`CC[C@@H](C(=O)[C@@H](C)[C@@H](O)[C@H](C)[C@@H]1O[C@@H]([C@@H](CC)C(=O)O)CC[C@@H]1C)[C@H]1O[C@]2(C=C[C@@H](O)[C@]3(CC[C@@](C)([C@H]4CC[C@](O)(CC)[C@H](C)O4)O3)O2)[C@H](C)C[C@@H]1C`: the 50% inhibitory concentration (IC50) in assay [1] was 0.399 µM; in the assay on Cytotoxicity, 2.36 µM.
For the molecule `CN(c1ncnc(N)c1[N+](=O)[O-])C1CCCCC1`, the IC50 in assay [1] was 1.09 µM; with Cytotoxicity, > 79 µM (inactive).
With `CN(C)c1ccc(-c2nn3c(-c4ccccc4Cl)nnc3s2)cc1`, the values for the IC50 (in assay [1]; in the assay on Cytotoxicity) were 19.2 µM and > 79 µM (inactive), respectively.
Turning to `CCn1c(Oc2ccccc2F)nc2c1c(=O)n(C)c(=O)n2C`, the IC50 is 3.57 µM in assay [1] and > 79 µM (inactive) with Cytotoxicity.
For the molecule `C[C@H](O)[C@@H]1CN2CCc3c([nH]c4ccc(-c5ccc6c(c5)OCO6)cc34)[C@@H]2C[C@@H]1N(C)C(=O)Nc1ccc(F)cc1`, the IC50 in assay [1] is 9.85 µM; in the assay with Cytotoxicity, 29 µM.
In the same order, the values of `COc1ccc(-c2nc(NC(=O)c3ccc(OCC(=O)Nc4ccc(F)cc4)c(OC)c3)sc2C)cc1` are 4.72 µM and 16.6 µM.
In the case of `O=C(Nc1ccccc1)c1cc2ccccc2c(=O)s1`, the results for the IC50 (in assay [1]; in the assay with Cytotoxicity) were 5.4 µM and > 79 µM (inactive), respectively.
As for `CCCCCCCCCc1nc2sc3c(c2c(=O)n1NC(=O)c1ccc([N+](=O)[O-])cc1)CC(C)(C)OC3`, the figures for the IC50 (in assay [1]; with Cytotoxicity) were 5.52 µM and 43.8 µM, respectively.
For `C#CCN(C[C@@H]1[C@@H](OC(=O)NCc2ccco2)[C@@H](OC(=O)NCc2ccco2)Cn2c(=O)ccc(=O)n21)S(=O)(=O)c1ccc(C)cc1`, the IC50 was 3.11 µM in assay [1] and 18.3 µM in the assay on Cytotoxicity.
Take `CC1=C(C(=O)OCc2ccc3c(c2)OCO3)C(c2ccc(O)c([N+](=O)[O-])c2)NC(=O)N1` (stereo not given): the figures for the IC50 (in assay [1]; in the assay on Cytotoxicity) were 1.71 µM and > 79 µM (inactive), respectively.
As for `N#Cc1c(-c2ccc(Cl)cc2)n(O)c2ccccc12`, the figures for the IC50 (in assay [1]; in the assay on Cytotoxicity) were 2.85 µM and 3.98 µM, respectively.
As for `Cc1ccc(-c2c(C#N)c(N)n3c(nc4ccccc43)c2C#N)cc1`, the IC50 in assay [1] is 2.89 µM; with Cytotoxicity, 5.34 µM.
With `Cc1[nH]nc2ncc(C(=O)c3ccccc3O)cc12`, the concentration for half-maximal inhibition (IC50) is 1.68 µM in assay [1] and 24.3 µM in the assay on Cytotoxicity.
As for `C=C1C(=O)OC2CC1C(O)CC(C)=CCCC(C)=CC(O)CC2C` (stereo not given), the IC50 was 0.537 µM in assay [1] and 1.09 µM in the assay with Cytotoxicity.
Turning to `COc1ccc(-n2nnnc2S(=O)(=O)Cc2ccc(C(=O)O)cc2)cc1`, the values for the IC50 (in assay [1]; in the assay on Cytotoxicity) were 1.05 µM and 3.16 µM, respectively.
Consider `CC(=O)c1ccc(NC(=O)Nc2ccc3c(c2)N(C)C(=O)CS3)cc1`, for which the values for the 50% inhibitory concentration (IC50) (in assay [1]; in the assay with Cytotoxicity) were 5.14 µM and 29.2 µM, respectively.
For `CCN1CCN(Cc2ccc(NC(=O)c3ccc(C)c(NC(=O)c4cc(-c5ccc(Br)cc5)n[nH]4)c3)cc2C(F)(F)F)CC1`, the IC50 in assay [1] is 2.77 µM; in the assay on Cytotoxicity, 42.5 µM.
In the case of `O=c1[nH]c2ccccc2n1C1CCN(C(c2cccc3ccccc23)c2nnnn2Cc2ccccc2)CC1` (stereo not given), the values for the 50% inhibitory concentration (IC50) (in assay [1]; in the assay with Cytotoxicity) were 3.25 µM and 10 µM, respectively.
As to `CCOC(=O)N1CCC(NC(=O)c2ccc3c(c2)N=C(C)c2c(C)ccc(C)c2S3)CC1`, the IC50 is 11 µM in assay [1] and 41.4 µM in the assay on Cytotoxicity.
Consider `CC(C)C[C@@H](CN1CCC[C@@H]1CN1C(=S)NC[C@@H]1Cc1ccc(O)cc1)N1C[C@H](Cc2ccc(O)cc2)N(CC2CCCCC2)C1=S`, for which the IC50 is 17 µM in assay [1] and 18.8 µM in the assay on Cytotoxicity.
For the molecule `Cc1nc(N2CCC(C(N)=O)CC2)c2c(-c3cccs3)csc2n1`, the half-inhibitory concentration (IC50) in assay [1] was 3.23 µM; with Cytotoxicity it was 33.5 µM.
In the case of `COc1ccccc1Cn1c(=O)c2ccccc2n2c(Sc3ncnc4sccc34)nnc12`, the IC50 in assay [1] was 3.9 µM; in the assay on Cytotoxicity, 5.9 µM.
For `Fc1ccc(-n2cc(-c3ccccc3)c3c(N4CCOCC4)ncnc32)cc1`, the IC50 in assay [1] is 3.21 µM; with Cytotoxicity, 8.13 µM.
Regarding `CS(=O)(=O)Nc1cccc(-c2cc(NC=O)c3ncc(-c4ccc(F)cc4)n3c2)c1`, the IC50 in assay [1] is 2.4 µM; in the assay with Cytotoxicity, 8.66 µM.
As for `Cc1cc(C)c(C#N)c(SCC(=O)c2ccc(Cl)cc2Cl)n1`, the IC50 in assay [1] is 6.02 µM; with Cytotoxicity it was 14.8 µM.
Regarding `COc1cc(O)cc2cc3c(c(O)c12)C(=O)CC(C)(O)O3` (stereo not given), the IC50 in assay [1] was 4.17 µM; in the assay on Cytotoxicity, 45.5 µM.
For the molecule `NC(=O)c1nsc(C(=O)N(c2ccccc2F)C(C(=O)NCc2ccc(F)cc2)c2ccc(O)cc2)c1N` (stereo not given), the 50% inhibitory concentration (IC50) is 2.08 µM in assay [1] and 6.55 µM with Cytotoxicity.
For the molecule `COc1ccc(N=Cc2cc3c(cc2O)OC(N)=C(C#N)C3c2ccccc2)cc1` (stereo not given), the IC50 was 3.4 µM in assay [1] and 59.8 µM (inactive) with Cytotoxicity.
The corresponding values for `O=S(=O)(c1ccc(Br)cc1)c1cnc2ccccc2n1` are 6.57 µM and 7.65 µM.
`Cc1cc(N2CCOCC2)c2c(N)c(Br)cc(C)c2n1`: the figures for the IC50 (in assay [1]; in the assay on Cytotoxicity) were 0.729 µM and 20 µM, respectively.
Take `Cc1ccc(CCC(=O)Nc2ncc(Cc3cccc(Cl)c3Cl)s2)o1`: the IC50 in assay [1] was 8.87 µM; in the assay with Cytotoxicity, 19.1 µM.
Consider `COc1ccc(/C=N/NC(=O)c2[nH]c3ccc(Br)cc3c2-c2ccccc2)cc1`, for which the 50% inhibitory concentration (IC50) is 9.3 µM in assay [1] and 27 µM with Cytotoxicity.
Consider `O=C(COC(=O)c1ccc2[nH]c3c(c2c1)CCCC3)Nc1ccccc1Cl`, for which the IC50 result in assay [1] is “inactive”. Moreover, the IC50 in the assay with Cytotoxicity is 36.6 µM.
In the same order, the values of `CC(C)[C@H](CO)Nc1nc(NCc2ccc(S(N)(=O)=O)cc2)c2ncn(C(C)C)c2n1` are 1.67 µM and 11.9 µM.
In the same order, the values of `Cc1ccccc1S(=O)(=O)Cc1ccc(C(=O)N2CCN(c3cccc(C)c3C)CC2)o1` are 11 µM and 25 µM.
For `CCOC(=O)c1ccc(-n2[nH]c(-c3ccccc3)cc2=O)cc1`, the IC50 in assay [1] is 5.35 µM; in the assay on Cytotoxicity, 3.77 µM.
The corresponding values for `CC(C)(C)C(=O)/C(=C/c1ccncc1)n1cncn1` are 2.22 µM and 15.1 µM.
As for `Oc1ccc(Nc2ncnc3scc(-c4ccccc4)c23)cc1`, the IC50 in assay [1] was 12.6 µM; in the assay with Cytotoxicity, 48.7 µM.
In the same order, the values of `CCc1nc(Cl)c(C#N)c2c1CCCC2` are 2.87 µM and 45.4 µM.
Turning to `COc1cccc(-c2nnc3sc(C4CCCCC4)nn23)c1`, the IC50 in assay [1] was 0.82 µM; with Cytotoxicity it was 10.6 µM.
Turning to `CC[C@H](CO)Nc1nc(Nc2cccc(Cl)c2)c2ncn(C(C)C)c2n1`, the IC50 was 3.53 µM in assay [1] and 8.91 µM in the assay on Cytotoxicity.
With `CC(C)Cc1nc2oc3c(NCC4CCCO4)ncnc3c2c2c1CCC2` (stereo not given), the 50% inhibitory concentration (IC50) in assay [1] is 2.87 µM; in the assay with Cytotoxicity, 3.76 µM.
On to `CCN(CC)CCNC(=O)c1ccc(NC(=O)C2CCN(c3ncnc4sc(C)c(C)c34)CC2)cc1`, for which the half-inhibitory concentration (IC50) in assay [1] is 6.33 µM; with Cytotoxicity, 16.1 µM.
In the case of `CCC1=C(CC2NCCc3ccccc32)CC2c3cc(OC)c(OC)cc3CCN2C1` (stereo not given), the figures for the IC50 (in assay [1]; with Cytotoxicity) were 4.34 µM and 30 µM, respectively.
The corresponding values for `c1csc(CNc2ncnc3ccc(-c4ccoc4)cc23)c1` are 0.194 µM and 7.68 µM.
The corresponding values for `CC1C(=O)N(Cc2cn(Cc3ccco3)nn2)CCS(=O)(=O)N1Cc1ccc(-c2ccccc2C(F)(F)F)cc1` (stereo not given) are 14 µM and 57.4 µM (inactive).
In the same order, the values of `O=C(Nc1cccc(S(=O)(=O)N2CCCCC2)c1)Nc1ccc(Cl)cc1Cl` are 8.83 µM and 10.6 µM.
On to `CC(NC(=O)OCc1ccccc1)C(=O)Oc1cc2oc(=O)cc(-c3ccccc3)c2cc1Cl` (stereo not given), for which the IC50 was 1.34 µM in assay [1] and 27.9 µM in the assay with Cytotoxicity.
Take `COc1cccc(-c2ccc3ncnc(NCc4cccc(C)c4)c3c2)c1`: the figures for the concentration for half-maximal inhibition (IC50) (in assay [1]; with Cytotoxicity) were 5.66 µM and 13 µM, respectively.
For `CCCCCCc1cc2cc(S(=O)(=O)c3ccc(F)cc3)c(=O)oc2cc1O`, the results for the IC50 (in assay [1]; in the assay with Cytotoxicity) were 4.48 µM and 4.76 µM, respectively.
For the molecule `COc1cc(/C=N/NC(=O)Nc2cccc3nsnc23)cc(OC)c1OC`, the IC50 was 2.53 µM in assay [1] and 14.7 µM with Cytotoxicity.
Consider `COc1ccc2[nH]c(=O)c3c(c2c1)OC(C)(C)C=C3`, for which the half-inhibitory concentration (IC50) is 1.67 µM in assay [1] and 19.8 µM in the assay on Cytotoxicity.
In the same order, the values of `CC(C)OC(=O)c1cccc(C(=O)Nc2cccc(NC(=O)c3cccc(C(=O)OC(C)C)n3)n2)n1` are 4.5 µM and > 79 µM (inactive).
`CCn1c2ccccc2c2cc(/C=N/O)ccc21`: the IC50 in assay [1] is 3.38 µM; in the assay with Cytotoxicity, 46.4 µM.
As for `COc1ccc(S(=O)(=O)N2c3ccc(F)cc3CCC2C)cc1` (stereo not given), the IC50 entry in assay [1] was “inactive”. Moreover, in the assay with Cytotoxicity, the IC50 is > 79 µM (inactive).
The corresponding values for `Cc1nc([N+](=O)[O-])c(Sc2nc3ccccc3n2C)n1Cc1ccccc1` are 4.05 µM and 13 µM.
